Assay results from patent publication US20120183489A1, “COMPOSITIONS COMPRISING METALLATED MALODOR CONTROL POLYMERS” (priority 2011, published 2012).

Tests used:
[1] = Sulfur odor control performance, headspace SPME GC/MS, butanethiol; conditions: 5 ml test solution spiked with 3 ppm; 2 h room temperature, 30 min 35° C.; Control = 1.0
Experimental: (§1) Butanethiol and dipropoyl sulfide were chosen as chemical surrogates for sulfur containing odors such as kitchen (onion/garlic), sewage, etc. These two molecules also enable the assessment of efficacy of polymer for sulfur molecules having different degrees of hydrophobicity (e.g more hydrophobic dipropylsulfide is usually harder to mitigate with hydrophilic technologies such as cyclodextrin). 5 ml test solution was placed in a GC-MS vial and spiked with 3 parts-per-million of butanethiol or dipropylsulfide. The solutions were first equilibrated at room temperature for 2 hours, then incubated at 35° C. for 30 minutes. The headspace of each vial was finally sampled using a PDMS/SPME fiber and analyzed by GC/MS. The reductions in head space concentrations of sulfur molecules were measured and the data were normalized to Control (Table 4).

[2] = Malodor control performance, headspace SPME GC/MS, butylamine; conditions: 5 ml test solution spiked with 5 microliters; 2 h room temperature, 30 min 35° C.; Control = 1.0; pH 7 (ZnCl2 pH 5)
Experimental: (§2) This example illustrates the malodor efficacy of the HMPs of the present invention. Isovaleric acid was chosen as a chemical surrogate for body odor while butylamine was used as a representative for amine-containing odors such as fish, pet urine, etc. Hydrophobic greasy cooking odors were represented by aldehydes such as nonanal. The solutions are first equilibrated at room temperature for 2 hours, then incubated at 35° C. for 30 minutes. The headspace of each vial is finally sampled using a polydimethyl siloxane (PDMS)/Solid-Phase-Micro-Extraction (SPME) fiber and analyzed by GC/MS. The reductions in head space concentrations of odor molecules are measured and the data are normalized to Control. Lower numbers denote […] of malodor molecules present in the solution that are attributed to high malodor control efficacy of polymers.

[3] = Malodor control performance, headspace SPME GC/MS, isovaleric acid; conditions: 5 ml test solution spiked with 5 microliters; 2 h room temperature, 30 min 35° C.; Control = 1.0; pH 7 (ZnCl2 pH 5)
Experimental: as §2

[4] = system: microbes of soiled sponge samples; experiment: Odor prevention through microbe reduction, SOLARIS colorimetric detection on soiled sponge; type: cell-based; conditions: soiled sponge treated 15 min, dried 12 h; incubated 120 hrs at 37° C.; Control 2.35 hrs
Experimental: The Control formulation containing no malodor control polymer or zinc salt, and Formulations containing individual polymers, zinc salts, and zinc-polymer complexes are compared for their effect on odor prevention, through microbe reduction.
Soiled sponge samples were cut into 1×6 cm strips and treated with the solutions (Table 5) for 15 minutes and dried at ambient temperature for 12 hours. The treated 1 cm strips were then cut into 1×1 cm pieces, placed into SOLARIS scintillation vials, and 1 ml of MOPS buffer was added. The open vials were placed into outer SOLARIS vials containing thymolphthalein blue pH indicator and the vials were finally capped. The sealed vials were placed into a SOLARIS machine and incubated for 120 hrs at 37° C. Colorimetric measurements were conducted according to SOLARIS VIV protocol and the detection times of acidic respiratory byproducts were record (Table 5).

[5] = Sulfur odor control performance, headspace SPME GC/MS, dipropylsulfide; conditions: 5 ml test solution spiked with 3 ppm; 2 h room temperature, 30 min 35° C.; Control = 1.0
Experimental: as §1

[6] = Malodor control performance, headspace SPME GC/MS, nonanal; conditions: 5 ml test solution spiked with 5 microliters; 2 h room temperature, 30 min 35° C.; Control = 1.0; pH 7 (ZnCl2 pH 5)
Experimental: as §2

[7] = benchmark values; cited from earlier work

Compound | head space concentration of Butanethiol normalized to Control [1] | head space concentration of Butylamine (Fish) normalized to Control [2] | head space concentration of Isovaleric Acid (Body) normalized to Control [3] | Respiratory Byproducts Detection Time [4] | head space concentration of Dipropylsulfide normalized to Control [5] | head space concentration of Nonanal (Grease) normalized to Control [6] | ambient temperature water solubility (benchmark) [7]
[Cl-].[Cl-].[Zn+2] [ZnCl2, zinc chloride] | 0.8 | 0.0 | 1.0 | 3.38 h | 1.0 | 1.0 | 
OC[C@H]1O[C@@H]2O[C@H]3[C@H](O)[C@@H](O)[C@@H](O[C@H]4[C@H](O)[C@@H](O)[C@@H](O[C@H]5[C@H](O)[C@@H](O)[C@@H](O[C@H]6[C@H](O)[C@@H](O)[C@@H](O[C@H]7[C@H](O)[C@@H](O)[C@@H](O[C@H]8[C@H](O)[C@@H](O)[C@@H](O[C@H]1[C@H](O)[C@H]2O)O[C@@H]8CO)O[C@@H]7CO)O[C@@H]6CO)O[C@@H]5CO)O[C@@H]4CO)O[C@@H]3CO [beta-cyclodextrin] |  |  |  |  |  |  | 1.8 g/100 ml
hydroxypropyl modified beta cyclodextrin |  |  |  |  |  |  | ≥ 60 g/100 ml
